Like-named read-outs stand apart in the source and are kept apart here.
Assays:
[1] = test system: FLOD-S derived from S-1F4 strain; experiment: Effect of various inhibitors on activity of FLOD-S; stabilization; assay type: biochemical, Fusarium oxysporum S-1F4
Description: In the present test, the final concentration of PCMB (parachloro mercuric benzoate) is 0.1 mM while that of others 1 mM. The stabilization effect was examined by dialyzing the mixture overnight against 50 mM Tris-HCl buffer (pH 8.5) containing 2 mM dithiothreitol (DTT) and measuring the enzyme activity.

[2] = test system: FLOD-G derived from Gibberella fujikuroi; experiment: Effect of various inhibitors on the activity of FLOD-G; stabilization; assay type: biochemical
Description: The inhibitory effect of various substances was tested in a manner substantially analogous to that described in (1) above. The stabilization effect was examined by dialyzing overnight against 50 mM Tris-HCl buffer (pH 8.5) containing 2 mM DTT and measuring the activity.

[3] = test system: FLOD-S derived from S-1F4 strain; experiment: Effect of metal ion on the activity of FLOD-S; assay type: biochemical, Fusarium oxysporum S-1F4
Description: After 5 minutes of incubation at 30° C., the enzyme activity was evaluated.

[4] = test system: FLOD-G derived from Gibberella fujikuroi (IFO No. 6605); experiment: Effect of metal ion on the activity of FLOD-G; assay type: biochemical
Description: Then, the enzyme activity was evaluated.

[5] = test system: FLOD-S derived from S-1F4 strain; experiment: Substrate specificity of FLOD-S (hydrogen peroxide generation)
Description: The partially purified enzyme was prepared in the following manner. Thus, S-1F4 strain was grown in a GL brown-colored medium for 24 hours and the culture was filtered with suction to harvest mycelia. The mycelia were then washed, suspended in 0.1 M Tris-HCl buffer (pH 8.5), ground by means of Dino-Mill and centrifuged. The centrifugal supernatant is fractionated with ammonium sulfate and purified using DEAE-Sephacel ion-exchange chromatography to obtain the partially purified enzyme. The purified enzyme was prepared according to the method described in Example 1 below.
A 50 mM FZL solution was prepared by dissolving FZL previously obtained in distilled water. To a mixture of 100 μl of 45 mM 4-aminoantipyrine, 100 μl of peroxidase (60 U/ml), 100 μl of 60 mM phenol, 1 ml of 0.1 M Tris-HCl buffer (pH 8.0) and 50 μl of enzyme solution was added distilled water to give a total volume of 2.9 ml and the solution was allowed to equilibrate at 30° C. After the addition of 100 μl of 50 mM FZl solution, the time-course of absorbance at 505 nm was measured. The amount (μmol) of hydrogen peroxide produced in one minute was calculated on the basis of a molar absorption coefficient (5.16×10^3 M^-1 cm^-1) of a quinone pigment produced. The resultant numerical value was taken as a unit(U) of enzyme activity.

[6] = test system: FLOD-G derived from Gibberella fujikuroi; experiment: Substrate specificity of FLOD-G
Description: To a mixture of 100 μl of 45 mM 4-aminoantipyrine, 100 μl of peroxidase solution (60 U/ml), 100 μl of 60 mM phenol, 1 ml of 0.1 M Tris-HCl buffer (pH 8.0) and 50 μl of enzyme solution, was added distilled water to give a total volume of 2.95 ml and the solution was allowed to be equilibrated at 30° C. After the addition of 50 μl of 100 mM FZL solution, the time-course of absorbance at 505 nm was measured. The amount (μmol) of hydrogen peroxide produced in one minute was calculated on the basis of a molar absorption coefficient (5.16×10^3 M^-1 cm^-1) of a quinone pigment produced. The resultant numerical value was taken as a unit (U) of enzyme activity.

[7] = inhibitor (mM), concentration not given, None = 100
[8] = metal 1 mM, 0.1 M Tris-HCl pH 8.0, 5 minutes at 30° C., None = 100
[9] = metal 1 mM, 0.1 M Tris-HCl pH 8.0, pre-incubated 5 minutes at 30° C., None = 100
[10] = partially purified FLOD-S, substrate 0.018%

Row | Molecule | Specific activity (%) ([1]; reagent 1 mM, None = 100) | Specific activity (%) [2, 7] [%] | Specific activity (%) [3, 8] [%] | Specific activity (%) [4, 9] [%] | further results
1 | O[C@H](CS)[C@H](O)CS (racemic) [dithiothreitol] | – | – | – | – | Stabilization of FLOD-S ([1]; pH 8.5): stabilized; Stabilization of FLOD-G ([2]; dialysis overnight against 50 mM Tris-HCl buffer (pH 8.5) containing 2 mM DTT): stabilized
2 | O=C(O)c1cc(SSc2ccc([N+](=O)[O-])c(C(=O)O)c2)ccc1[N+](=O)[O-] [5,5',-Dithiobis(2-nitrobenzoic acid)] | 95 | 76 | – | – | –
3 | O=[N+]([O-])[O-].[Ag+] [AgNO3] | – | – | 0 | 0 | Inhibition of FLOD-S activity by metal ion ([3]; metal 1 mM): completely inhibited; Inhibition of FLOD-G activity by metal ion ([4]; metal 1 mM): completely inhibited
4 | N=C(N)NN [Aminoguanidine] | 66 | 50 | – | – | Inhibition of FLOD-G activity by inhibitor [2]: strongly inhibited
5 | [Ba+2].[Cl-].[Cl-] [BaCl2] | – | – | 60 | 103 | –
6 | [Ca+2].[Cl-].[Cl-] [CaCl2] | – | – | 77 | 97 | –
7 | C#CCN(C)CCCOc1ccc(Cl)cc1Cl [Clorgyline] | 132 | – | – | – | –
8 | O=S(=O)([O-])[O-].[Co+2] [CoSO4] | – | – | 42 | 15 | Inhibition of FLOD-G activity by metal ion ([4]; metal 1 mM): inhibited
9 | [Cl-].[Cs+] [CsCl2] | – | – | 102 | 97 | –
10 | [Cl][Cu][Cl] [CuCl2] | – | – | 0 | 2 | Inhibition of FLOD-S activity by metal ion ([3]; metal 1 mM): completely inhibited; Inhibition of FLOD-G activity by metal ion ([4]; metal 1 mM): inhibited
11 | C#CCN(C)C(C)Cc1ccccc1 (stereo not shown) [Deprenyl] | 102 | 81 | – | – | –
12 | O=C(O)CN(CCN(CC(=O)O)CC(=O)O)CC(=O)O [EDTA] | – | – | – | – | Specific activity (%) [2]: 81%
13 | [Cl][Fe]([Cl])[Cl] [FeCl3] | – | – | 67 | 16 | Inhibition of FLOD-G activity by metal ion ([4]; metal 1 mM): inhibited
14 | O=S(=O)([O-])[O-].[Fe+2] [FeSO4] | – | – | 97 | 74 | –
15 | O=C(N[C@@H](CCCCNCC(=O)[C@@H](O)[C@H](O)[C@H](O)CO)C(=O)O)OCc1ccccc1 [Fructosyl N^α -Z-lysine, fructosyl N^α -Z-lysine] | – | – | – | – | Specificity of FLOD-S to substrate [5]: remarkably specific
16 | [Cl][Hg][Cl] [HgCl2] | – | – | 0 | 25 | Inhibition of FLOD-S activity by metal ion ([3]; metal 1 mM): completely inhibited; Inhibition of FLOD-G activity by metal ion ([4]; metal 1 mM): inhibited
17 | NN [Hydrazine] | 13 | 14 | – | – | Inhibition of FLOD-S activity by inhibitor [1]: inhibited; Inhibition of FLOD-G activity by inhibitor [2]: strongly inhibited

Row | Molecule | Specific activity (%) ([1]; reagent 1 mM, None = 100) | Specific activity (%) [2, 7] [%] | Specific activity (%) [3, 8] [%] | Specific activity (%) [4, 9] [%] | further results
18 | NO [Hydroxylamine] | 21 | 16 | – | – | Inhibition of FLOD-G activity by inhibitor [2]: strongly inhibited
19 | O=C(O)CI [Iodoacetic acid] | – | – | – | – | Specific activity (%) [1]: 102%; Specific activity (%) [2]: 77%
20 | [Cl-].[K+] [KCl] | – | – | 104 | 98 | –
21 | [Cl-].[Li+] [LiCl] | – | – | 100 | 96 | –
22 | [Cl-].[Cl-].[Mg+2] [MgCl2] | – | – | 75 | 94 | –
23 | [Cl][Mn][Cl] [MnCl2] | – | – | 154 | 115 | –
24 | [Cl-].[Na+] [NaCl] | – | – | – | – | Specific activity (%) ([3]; pH 8): 107%; Specific activity (%) ([4]; pH 8): 97%
25 | c1cnc2c(c1)ccc1cccnc12 [O-Phenanthrolene] | 103 | 78 | – | – | –
26 | O=C(O)c1cc[c]([Hg][Cl])cc1 [PCMB, parachloro mercuric benzoate] | – | – | – | – | Inhibition of FLOD-S activity by inhibitor ([1]; PCMB 0.1 mM, others 1 mM): completely inhibited; Specific activity (%) ([1]; reagent 0.1 mM, None = 100): 0%; Inhibition of FLOD-G activity by inhibitor [2]: strongly inhibited; Specific activity (%) ([2]; inhibitor 0.1 mM, None = 100): 51%
27 | NNc1ccccc1 [Phenylhydrazine] | 2.6 | 13 | – | – | Inhibition of FLOD-S activity by inhibitor [1]: inhibited; Inhibition of FLOD-G activity by inhibitor [2]: strongly inhibited
28 | [Cl-].[Rb+] [RbCl] | – | – | 103 | 97 | –
29 | NNC(N)=O [Semicarbazide] | 103 | 77 | – | – | –
30 | [N-]=[N+]=[N-] [Sodium azide] | 101 | 78 | – | – | –
31 | O=S(=O)([O-])[O-].[Zn+2] [ZnSO4] | – | – | 0 | 33 | Inhibition of FLOD-S activity by metal ion ([3]; metal 1 mM): completely inhibited; Inhibition of FLOD-G activity by metal ion ([4]; metal 1 mM): inhibited
32 | c1ccc(-c2ccccn2)nc1 [α,α'-Dipyridyl] | 106 | 78 | – | – | –
33 | Fructosyl poly-L-lysine | – | – | – | – | Activity of FLOD-G on substrate [6]: active; Specific activity (%) ([6]; FLOD-G, substrate 0.017%): 1.0%; Specificity of FLOD-S to substrate [5]: specific; Activity [5, 10]: 0.0738 U/ml; Specific activity (%) [5, 10]: 2.3%; Specific activity (%) ([5]; purified FLOD-S, substrate 0.02%): 2.3%
